Reference: the NIST ThermoML archive (doi:10.1016/j.jct.2017.11.007)
± gives the expanded uncertainty stated by the source.

Experiment: mn = molality of the nth substance listed, in mol/kg
Conditions: 74.66 kPa, Liquid; for speed of sound: Frequency=3 MHz, Single path-length method; for mass density: Vibrating tube method

Cc1cc(C)nc([N-]S(=O)(=O)c2ccc(N)cc2)n1.[Na+] + O
speed of sound (278.15 K, m1 = 0.00501): 1427.9 ± 1.2 m/s | speed of sound (278.15 K, m1 = 0.00799): 1428.7 ± 1.2 m/s | speed of sound (278.15 K, m1 = 0.01): 1429.2 ± 1.2 m/s | speed of sound (278.15 K, m1 = 0.01488): 1430.3 ± 1.2 m/s | speed of sound (278.15 K, m1 = 0.01983): 1431.3 ± 1.2 m/s | speed of sound (278.15 K, m1 = 0.02501): 1432.3 ± 1.2 m/s | speed of sound (278.15 K, m1 = 0.02961): 1433.5 ± 1.2 m/s | speed of sound (278.15 K, m1 = 0.03503): 1434.6 ± 1.2 m/s | speed of sound (278.15 K, m1 = 0.0401): 1435.7 ± 1.2 m/s | speed of sound (278.15 K, m1 = 0.04493): 1436.6 ± 1.2 m/s | speed of sound (278.15 K, m1 = 0.04993): 1437.7 ± 1.2 m/s | speed of sound (278.15 K, m1 = 0.05504): 1438.8 ± 1.2 m/s | speed of sound (278.15 K, m1 = 0.05966): 1439.9 ± 1.2 m/s | mass density (278.15 K, m1 = 0.00501): 1000.54 ± 0.11 kg/m3 | mass density (278.15 K, m1 = 0.00799): 1000.88 ± 0.11 kg/m3 | mass density (278.15 K, m1 = 0.01): 1001.11 ± 0.11 kg/m3 | mass density (278.15 K, m1 = 0.01488): 1001.67 ± 0.11 kg/m3 | mass density (278.15 K, m1 = 0.01983): 1002.23 ± 0.11 kg/m3 | mass density (278.15 K, m1 = 0.02501): 1002.81 ± 0.11 kg/m3 | mass density (278.15 K, m1 = 0.02961): 1003.34 ± 0.11 kg/m3 | mass density (278.15 K, m1 = 0.03503): 1003.95 ± 0.11 kg/m3 | mass density (278.15 K, m1 = 0.0401): 1004.52 ± 0.11 kg/m3 | mass density (278.15 K, m1 = 0.04493): 1005.06 ± 0.11 kg/m3 | mass density (278.15 K, m1 = 0.04993): 1005.63 ± 0.11 kg/m3 | mass density (278.15 K, m1 = 0.05504): 1006.2 ± 0.11 kg/m3 | mass density (278.15 K, m1 = 0.05966): 1006.73 ± 0.11 kg/m3 | speed of sound (283.15 K, m1 = 0.00501): 1448.8 ± 1.2 m/s | speed of sound (283.15 K, m1 = 0.00799): 1449.4 ± 1.2 m/s | speed of sound (283.15 K, m1 = 0.01): 1449.9 ± 1.2 m/s | speed of sound (283.15 K, m1 = 0.01488): 1450.9 ± 1.2 m/s | speed of sound (283.15 K, m1 = 0.01983): 1451.9 ± 1.2 m/s | speed of sound (283.15 K, m1 = 0.02501): 1452.9 ± 1.2 m/s | speed of sound (283.15 K, m1 = 0.02961): 1453.9 ± 1.2 m/s | speed of sound (283.15 K, m1 = 0.03503): 1455 ± 1.2 m/s | speed of sound (283.15 K, m1 = 0.0401): 1456 ± 1.2 m/s | speed of sound (283.15 K, m1 = 0.04493): 1456.8 ± 1.2 m/s | speed of sound (283.15 K, m1 = 0.04993): 1457.8 ± 1.2 m/s | speed of sound (283.15 K, m1 = 0.05504): 1458.8 ± 1.2 m/s | speed of sound (283.15 K, m1 = 0.05966): 1459.8 ± 1.2 m/s | mass density (283.15 K, m1 = 0.00501): 1000.27 ± 0.11 kg/m3 | mass density (283.15 K, m1 = 0.00799): 1000.6 ± 0.11 kg/m3 | mass density (283.15 K, m1 = 0.01): 1000.83 ± 0.11 kg/m3 | mass density (283.15 K, m1 = 0.01488): 1001.37 ± 0.11 kg/m3 | mass density (283.15 K, m1 = 0.01983): 1001.92 ± 0.11 kg/m3 | mass density (283.15 K, m1 = 0.02501): 1002.5 ± 0.11 kg/m3 | mass density (283.15 K, m1 = 0.02961): 1003.01 ± 0.11 kg/m3 | mass density (283.15 K, m1 = 0.03503): 1003.61 ± 0.11 kg/m3 | mass density (283.15 K, m1 = 0.0401): 1004.18 ± 0.11 kg/m3 | mass density (283.15 K, m1 = 0.04493): 1004.71 ± 0.11 kg/m3 | mass density (283.15 K, m1 = 0.04993): 1005.27 ± 0.11 kg/m3 | mass density (283.15 K, m1 = 0.05504): 1005.83 ± 0.11 kg/m3 | mass density (283.15 K, m1 = 0.05966): 1006.35 ± 0.11 kg/m3 | speed of sound (288.15 K, m1 = 0.00501): 1467.2 ± 1.2 m/s | speed of sound (288.15 K, m1 = 0.00799): 1467.8 ± 1.2 m/s | speed of sound (288.15 K, m1 = 0.01): 1468.3 ± 1.2 m/s | speed of sound (288.15 K, m1 = 0.01488): 1469.2 ± 1.2 m/s | speed of sound (288.15 K, m1 = 0.01983): 1470.1 ± 1.2 m/s | speed of sound (288.15 K, m1 = 0.02501): 1471.1 ± 1.2 m/s | speed of sound (288.15 K, m1 = 0.02961): 1472 ± 1.2 m/s | speed of sound (288.15 K, m1 = 0.03503): 1473 ± 1.2 m/s | speed of sound (288.15 K, m1 = 0.0401): 1474 ± 1.2 m/s | speed of sound (288.15 K, m1 = 0.04493): 1474.8 ± 1.2 m/s | speed of sound (288.15 K, m1 = 0.04993): 1475.7 ± 1.2 m/s | speed of sound (288.15 K, m1 = 0.05504): 1476.7 ± 1.2 m/s | speed of sound (288.15 K, m1 = 0.05966): 1477.6 ± 1.2 m/s | mass density (288.15 K, m1 = 0.00501): 999.659 ± 0.11 kg/m3 | mass density (288.15 K, m1 = 0.00799): 999.989 ± 0.11 kg/m3 | mass density (288.15 K, m1 = 0.01): 1000.21 ± 0.11 kg/m3 | mass density (288.15 K, m1 = 0.01488): 1000.75 ± 0.11 kg/m3 | mass density (288.15 K, m1 = 0.01983): 1001.29 ± 0.11 kg/m3 | mass density (288.15 K, m1 = 0.02501): 1001.86 ± 0.11 kg/m3 | mass density (288.15 K, m1 = 0.02961): 1002.36 ± 0.11 kg/m3 | mass density (288.15 K, m1 = 0.03503): 1002.95 ± 0.11 kg/m3 | mass density (288.15 K, m1 = 0.0401): 1003.51 ± 0.11 kg/m3 | mass density (288.15 K, m1 = 0.04493): 1004.03 ± 0.11 kg/m3 | mass density (288.15 K, m1 = 0.04993): 1004.58 ± 0.11 kg/m3 | mass density (288.15 K, m1 = 0.05504): 1005.14 ± 0.11 kg/m3 | mass density (288.15 K, m1 = 0.05966): 1005.65 ± 0.11 kg/m3 | speed of sound (293.15 K, m1 = 0.00501): 1483.5 ± 1.2 m/s | speed of sound (293.15 K, m1 = 0.00799): 1484 ± 1.2 m/s | speed of sound (293.15 K, m1 = 0.01): 1484.5 ± 1.2 m/s | speed of sound (293.15 K, m1 = 0.01488): 1485.3 ± 1.2 m/s | speed of sound (293.15 K, m1 = 0.01983): 1486.2 ± 1.2 m/s | speed of sound (293.15 K, m1 = 0.02501): 1487.1 ± 1.2 m/s | speed of sound (293.15 K, m1 = 0.02961): 1487.9 ± 1.2 m/s | speed of sound (293.15 K, m1 = 0.03503): 1488.9 ± 1.2 m/s | speed of sound (293.15 K, m1 = 0.0401): 1489.8 ± 1.2 m/s | speed of sound (293.15 K, m1 = 0.04493): 1490.5 ± 1.2 m/s | speed of sound (293.15 K, m1 = 0.04993): 1491.4 ± 1.2 m/s | speed of sound (293.15 K, m1 = 0.05504): 1492.3 ± 1.2 m/s | speed of sound (293.15 K, m1 = 0.05966): 1493.2 ± 1.2 m/s
